Measured values: BindingDB's records for doi:10.1016/0960-894X(95)00037-T (1995)

Tests used:
[1] = molecular target: T1, B2 bradykinin receptor (Homo sapiens, UniProt P30411); experiment: ChEBML_40431
T1 sequence (P30411 whole entry): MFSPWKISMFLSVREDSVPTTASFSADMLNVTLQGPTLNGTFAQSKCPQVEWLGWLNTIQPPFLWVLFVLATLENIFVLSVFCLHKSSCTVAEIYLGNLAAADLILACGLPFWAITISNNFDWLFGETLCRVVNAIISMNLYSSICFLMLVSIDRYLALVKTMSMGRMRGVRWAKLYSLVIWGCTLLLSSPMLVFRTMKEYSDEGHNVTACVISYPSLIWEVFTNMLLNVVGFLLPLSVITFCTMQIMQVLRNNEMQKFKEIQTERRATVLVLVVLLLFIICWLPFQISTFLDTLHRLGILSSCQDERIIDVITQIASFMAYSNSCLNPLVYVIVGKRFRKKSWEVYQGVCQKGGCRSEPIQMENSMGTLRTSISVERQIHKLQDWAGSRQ
Excerpt: (§1) Tested for binding affinity against human IMR-90 Bradykinin receptor B2

[2] = molecular target: T1, B2 bradykinin receptor; experiment: as §1

## CCCC[P+](CCCC)(CCCC)Cc1ccc(NC(=O)C2Cc3ccccc3CN2C(=O)[C@H](CCc2ccccc2)N/C(=N/C2CCCCC2)NC2CCCCC2)cc1 (stereo partly drawn) [tributyl[(4-{2-[(2S)-2-{[(1E)-(cyclohexylamino)(cyclohexyliminiumyl)methyl]amino}-4-phenylbutanoyl]-1,2,3,4-tetrahydroisoquinoline-3-amido}phenyl)methyl]phosphanium dichloride]
[1]
  Ki: 1000 nM
[2]
  Ki: 1000 nM
